# Data from patent publication US20150265644A1, “THERAPEUTIC METHODS AND COMPOSITIONS FOR TREATING DIABETES UTILIZING DITERPENOID COMPOUNDS” (Orient Europharma Co., Ltd., priority 2014, published 2015).
# Experiments:
# [1] = system: GLUT2; test: Western blot of liver, GLUT2 expression; format: in vivo; conditions: mice with type 1 DM, 10 mgkg^−1 i.p. twice a day for 7 days
# Protocol: (§1) After three days of acclimatization, the mice had free access to a standard rodent chow (normal mice), a standard rodent chow after single 250 mgkg^−1 streptozotocin (STZ) intraperitoneal injection (TIDM mice), and a fat-rich chow diet and fructose-sweetened water (T2DM mice) for 4 weeks. The induction of Type 1 DM was assessed and confirmed when the mice had plasma glucose levels ≧350 mgdL^−1, accompanied with polyuria, hyperphagia and decreased body weight. The induction Type 2 DM in the mice was assessed by measuring fasting plasma glucose levels and confirmed when plasma glucose level was ≧150 mgdL^−1 after the 4-week induction. […]
# (§2) Western blot analysis was carried out by known methods with a slight modification. […] After centrifuging the homogenates at 10,000 g for 30 minutes, the protein concentrations were determined by using a BCA Protein Assay Kit (Pierce Biotechnology, Rockford, Ill.). […] The membranes were analysed by using the antibodies against phospho-insulin receptor β (IRβ) (Tyr^1345), phospho-Akt (Ser^473), phosphor-AS160 (Thr^642), AS160 (Cell Signaling Technology, Beverly, Mass.), IRβ, Akt, β-Actin (Santa Cruz Biotechnology, Santa Cruz, Calif.), GLUT2 (Abcam, Cambridge, UK), and PEPCK (a gift from Professor D K Granner), respectively. […] The intensity of each band was quantified with ImageQuant.
# [2] = system: PEPCK; test: Western blot of liver, PEPCK expression; format: in vivo; conditions: mice with type 1 DM, 10 mgkg^−1 i.p. twice a day for 7 days
# Protocol: as §1, §2
# [3] = system: C2C12 skeletal muscle cells; test: Glycogen content assay in differentiated C2C12 myotubes; format: cell-based; conditions: 30 minutes
# Protocol: (§3) The C2C12 skeletal muscle cells were cultured in Dulbecco's modified Eagle's medium (DMEM; Gibco/Invitrogen, Carlsbad, Calif.), and the human hepatocellular carcinoma cell line, Hl-ep3B, was cultured in Roswell Park Memorial Institute medium 1640 (RPMI 1640 medium; Gibco/Invitrogen, Carlsbad, Calif.). Cells were cultured at 37° C. in the humidified incubator supplied with 5% CO2. Culture mediums were supplemented with 4.5 mgmL^−1 glucose, penicillin 100 IUmL^−1, streptomycin 100 μgmL^−1 and 10% fetal bovine serum (Gibco/Invitrogen, Carlsbad, Calif.). Only C2C12 cells were then switched to 2% horse serum for 3 days after reaching the 70% confluence. Myotubes formation was achieved after 4 days of incubation, and the cells were used for subsequent experiments. Culture mediums were replaced by serum free DMEM or RPMI for 24 h before experiments (see e.g., procedure described in Sultan et al., 2006).
# (§4) C2C12 and Hep3B cells were treated with 1 nM insulin, 100 μM metformin, and the assigned concentration of borapetoside A for 30 minutes. To develop the insulin resistance state of cells, C2C12 cells were incubated with IL-6 at 20 ngmL^−1 for 1 hour. Later, the cells were treated with 1 nM insulin, 100 μM metformin, and the assigned concentration of borapetoside A for 30 minutes. After the assigned treatment, cells were washed twice with phosphate buffered saline (PBS). Glycogen content was measured as previously described, with some modifications (see e.g., Savage et al., 2008). The protein concentrations of the cell lysates were determined by using Pierce BCA Protein Assay Kit (Thermo-Scientific, Rockford, Ill.). The glycogen content of each sample was normalized by total protein.
# [4] = system: phospho-Akt (Ser^473); test: Western blot of liver, phospho-Akt; format: in vivo; conditions: mice with type 1 DM, 10 mgkg^−1 i.p. twice a day for 7 days
# Protocol: as §1, §2
# [5] = system: phospho-insulin receptor β (IRβ) (Tyr^1345); test: Western blot of liver, phospho-insulin receptor; format: in vivo; conditions: mice with type 1 DM, 10 mgkg^−1 i.p. twice a day for 7 days
# Protocol: as §1, §2
# [6] = system: IL-6-treated C2C12 cells; test: Glycogen content assay in IL-6-induced insulin resistant C2C12 cells; format: cell-based; conditions: 30 minutes
# Protocol: as §3, §4
# [7] = Intraperitoneal glucose tolerance test; format: in vivo, mice
# Protocol: After three days of acclimatization, the mice had free access to a standard rodent chow (normal mice), a standard rodent chow after single 250 mgkg^−1 streptozotocin (STZ) intraperitoneal injection (TIDM mice), and a fat-rich chow diet and fructose-sweetened water (T2DM mice) for 4 weeks. The induction of Type 1 DM was assessed and confirmed when the mice had plasma glucose levels ≧350 mgdL^−1, accompanied with polyuria, hyperphagia and decreased body weight. The induction Type 2 DM in the mice was assessed by measuring fasting plasma glucose levels and confirmed when plasma glucose level was ≧150 mgdL^−1 after the 4-week induction. The animals were assigned randomly into three groups, with seven animals in each group. In group I, the mice were treated with vehicle, 2% DMSO in normal saline, as the negative control. In group II, the mice were intraperitoneally treated with borapetoside A (0.1-10 mgkg^−1). In […], the mice received intraperitoneally metformin (300 mgkg^−1; Sigma Chemical Co., St. Louis, Mo., U.S.A.) or insulin (0.5 IUkg^−1; Insulin Actrapid® HM; Novo Nordisk, Denmark). In the acute study, mice under anesthesia received a single intraperitoneal administration of borapetoside A, negative control, or positive control. In the subacute study, mice received intraperitoneal administrations of borapetoside A, vehicle, or insulin twice a day for seven days.
# Blood samples were collected from the orbital vascular plexus of the mice under anesthesia. Blood samples were then centrifuged at 13000 rpm for 5 min, and the plasma samples were collected and kept on ice prior to the assay. The plasma glucose concentration was measured by Glucose Kit Reagent (Biosystems S.A., Barcelona, Spain) following the manufacturer's instructions, and the insulin levels were estimated using mouse insulin ELISA kit (Mercodia AB, Uppsala, Sweden).
# The mice were maintained under anesthesia throughout the procedure. Glucose (2.0 gkg^−1) was administered intraperitoneally. Blood samples were collected from the orbital vascular plexus at 0, 30, 60, 120 min. The concentrations of the plasma glucose were measured, and the values of AUC were calculated accordingly.
# [8] = system: soleus muscle; test: Glycogen content in soleus muscle in vivo; design: species or system mice; conditions: 10 mgkg^−1 i.p., 60 minutes
# Protocol: The mice were injected with borapetoside A (10 mgkg^−1, interperitoneal) for 60 minutes or insulin (0.5 IUkg^−1, interperitoneal) for 30 minutes. After the treatment, the anesthetic mice were sacrificed by cervical dislocation to collect the soleus muscle and liver. About 40 mg of each sample was dissolved in 1 mol/L KOH at 75° C. for 30 min. The dissolved homogenate was neutralized by glacial acetic acid and then incubated overnight in acetate buffer (0.3 mol/L sodium acetate, pH 4.8) containing amyloglucosidase (Sigma, St. Louis, Mo.). The mixture was then neutralized with 1 mol/L NaOH to stop the reaction. The glycogen contents in the tissue samples were determined as μg of glucose per mg of tissue (wet weight).
compound,measurement,setting,value
C[C@@]12C[C@@H](c3ccoc3)OC(=O)[C@@H]1C[C@@H]1OC(=O)[C@@]3(O)[C@@H](O[C@@H]4O[C@H](CO)[C@@H](O)[C@H](O)[C@H]4O)CC[C@@H]2[C@@]13C [borapetoside A],expression of GLUT2 in liver,[1],increased
same,PEPCK expression in liver,[2],significant decrease
same,fold increase of glycogen,[3]; 10^−6 mol/L,1.49±0.15 fold
same,fold increase of glycogen,[3]; 10^−7 mol/L,1.28±0.04 fold
same,fold increase of glycogen,[3],1.53±0.10 fold
same,phosphorylated Akt in liver,[4],increased
same,phosphorylated IR in liver,[5],increased
same,fold increase of glycogen content,"[6]; IL-6-treated C2C12, 10^−6 mol/L",1.64±0.05 fold
same,fold increase of glycogen content,"[6]; IL-6-treated C2C12, 10^−7 mol/L",1.38±0.06 fold
same,fold increase of glycogen content,"[6]; IL-6-treated C2C12, 10^−8 mol/L",1.35±0.08 fold
same,increase of plasma glucose level at 30 min,"[7]; 0.1, 1, and 10 mgkg^−1, compared to the vehicle group, normal and type 2 DM mice",significantly suppressed
same,"area under the curve (AUC) of plasma glucose, % of vehicle control","[7]; normal mice, 0.1 mgkg^−1",78.8±3.0%
same,"area under the curve (AUC) of plasma glucose, % of vehicle control","[7]; normal mice, 1 mgkg^−1",69.9±7.1%
same,"area under the curve (AUC) of plasma glucose, % of vehicle control","[7]; normal mice, 10 mgkg^−1",68.91±3.5%
same,"area under the curve (AUC) of plasma glucose, % of vehicle control","[7]; type 2 DM bearing mice, 0.1 mgkg^−1",74.9±4.5%
same,"area under the curve (AUC) of plasma glucose, % of vehicle control","[7]; type 2 DM bearing mice, 1 mgkg^−1",71.1±3.2%
same,"area under the curve (AUC) of plasma glucose, % of vehicle control","[7]; type 2 DM bearing mice, 10 mgkg^−1",68.9±1.9%
same,"glycogen content in soleus muscle, % of vehicle control",[8]; mice with type 1 DM,155.6±8.6%
same,"glycogen content in soleus muscle, % of vehicle control",[8]; mice with type 2 DM,171.8±12.0%
same,"glycogen content in soleus muscle, % of vehicle control",[8]; normal mice,116.5±4.2%
